According to ChEMBL document CHEMBL1124383, “Carbamyl analogues of potent nicotinic agonists: pharmacology and computer-assisted molecular modeling study” (J Med Chem, 1989):

Tested on: frog
Test: Potency with reference to carbamylcholine at the frog neuromuscular junction, expressed as reciprocal of equipotent molar ratio
Format: functional

Row | SMILES | Potency
1 | CC(=O)N1CC[N+](C)(C)CC1 | 2.6
2 | CC(=O)C1CC[N+](C)(C)CC1 | 9.1
3 | C[N+]1(C)CCN(C(N)=O)CC1 | 0.15
4 | CC(=O)C1=CC[N+](C)(C)CC1 | 50
5 | C[N+]1(C)CCC(C(N)=O)CC1 | 0.052
6 | C[N+]1(C)CC=C(C(N)=O)CC1 | 0.77
